Melting point and Ki data for nine compounds are collected here from patent publication US6610677B2, “Pyrazole compounds useful as protein kinase inhibitors” (Vertex Pharmaceuticals Incorporated, priority 2000, dated 2003).

The target in series [1] is T1, human Src kinase (Homo sapiens, UniProt P12931).
T1 construct: full length recombinant human Src kinase; purchased Upstate Biotechnology 14-117; host or cells: baculo viral cells (baculovirus expression system)
In words: SRC inhibition assay (radioactivity-based or spectrophotometric assay). In kind it is biochemical. Conditions: assay A or B not specified; read-out: Ki value on SRC. Here is the method: The compounds were evaluated as inhibitors of human Src kinase using either a radioactivity-based assay or spectrophotometric assay. The compounds were assayed as inhibitors of full length recombinant human Src kinase (from Upstate Biotechnology, cat. no. 14-117) expressed and purified from baculo viral cells. […] P-0275). […] In a typical assay, all the reaction components with the exception of ATP were pre-mixed and aliquoted into assay plate wells. Inhibitors dissolved in DMSO were added to the wells to give a final DMSO concentration of 2.5%. The assay plate was incubated at 30° C. for 10 min before initiating the reaction with ^33P-ATP. After 20 min of reaction, the reactions were quenched with 150 μl of 10% trichloroacetic acid (TCA) containing 20 mM Na3PO4. The quenched samples were then transferred to a 96-well filter plate (Whatman, UNI-Filter GF/F Glass Fiber Filter, cat no. 7700-3310) installed on a filter plate vacuum manifold. Filter plates were washed four times with 10% TCA containing 20 mM Na3PO4 and then 4 times with methanol. 200 μl of scintillation fluid was then added to each well. The plates were sealed and the amount of radioactivity associated with the filters was quantified on a TopCount scintillation counter. The radioactivity incorporated was plotted as a function of the inhibitor concentration. The data was fitted to a competitive inhibition kinetics model to get the Ki for the compound. The ADP produced from ATP by the human recombinant Src kinase-catalyzed phosphorylation of poly Glu-Tyr substrate was quanitified using a coupled enzyme assay (Fox et al (1998) Protein Sci 7, 2249). In this assay one molecule of NADH is oxidised to NAD for every molecule of ADP produced in the kinase reaction. The disappearance of NADH can be conveniently followed at 340 nm. […] In a typical assay, all the reaction components with the exception of ATP were pre-mixed and aliquoted into assay plate wells. Inhibitors dissolved in DMSO were added to the wells to give a final DMSO concentration of 2.5%. […] The absorbance change at 340 nm with time, the rate of the reaction, was monitored on a molecular devices plate reader. The data of rate as a function of the inhibitor concentration was fitted to compettive inhibition kinetics model to get the Ki for the compound.

Series [2] concerns the target T2, GSK-3β (AA 1-420) (Homo sapiens, UniProt P49841).
T2 construct: GSK-3β (AA 1-420)
The experiment in a line: Ki determination for the inhibition of GSK-3 (coupled enzyme system). In kind it is biochemical. To be noted: 20 μM ATP, 300 μM peptide, 20 nM GSK-3β, 30° C. In short, it runs like this:
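Ki values come from reaction rates over 10 min at 30 °C as a function of inhibitor concentration (12-point titration, 0.002–30 μM, 10 min preincubation). GSK-3β (AA 1-420, 20 nM) phosphorylated 300 μM primed peptide with 20 μM ATP; ADP formation followed by coupled NADH oxidation, pH 7.5.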

Series [3] deals with T3, Aurora-2 (Homo sapiens, UniProt O14965).
T3 sequence (O14965 1-403): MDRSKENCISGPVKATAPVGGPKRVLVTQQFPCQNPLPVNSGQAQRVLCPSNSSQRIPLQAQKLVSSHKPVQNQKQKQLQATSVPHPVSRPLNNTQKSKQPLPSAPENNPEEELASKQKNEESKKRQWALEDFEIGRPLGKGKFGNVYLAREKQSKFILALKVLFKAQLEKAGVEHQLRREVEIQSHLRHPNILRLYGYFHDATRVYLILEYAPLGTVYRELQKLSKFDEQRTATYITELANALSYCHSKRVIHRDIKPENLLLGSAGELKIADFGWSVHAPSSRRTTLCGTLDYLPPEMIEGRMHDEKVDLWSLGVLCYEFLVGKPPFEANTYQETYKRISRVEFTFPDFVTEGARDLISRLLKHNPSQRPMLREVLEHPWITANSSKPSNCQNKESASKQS
The experiment in a line: Ki determination for the inhibition of Aurora-2 (coupled enzyme assay). Format: biochemical. Conditions: 70 nM Aurora-2, peptide LRRASLG, 30° C. A digest of the protocol: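 Ki came from reaction rates plotted against inhibitor concentration, with rates taken as A340 decrease over 5 min at 30° C. Enzyme (70 nM final) was added after 10 min compound preincubation; stock buffer held […], 800 μM LRRASLG, PK/LDH coupling, pH 7.5.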

Series [4] concerns the target activated ERK2 (Homo sapiens, UniProt P28482). The experiment in a line: ERK inhibition assay (spectrophotometric coupled-enzyme assay). In kind it is biochemical. Conditions: 10 nM activated ERK2, 65 μM ATP, 200 μM erktide; read-out: Ki value for ERK-2. Here is the method:
Compounds were assayed for the inhibition of ERK2 by a spectrophotometric coupled-enzyme assay (Fox et al (1998) Protein Sci 7, 2249). In this assay, a fixed concentration of activated ERK2 (10 nM) was incubated with various concentrations of the compound in DMSO (2.5%) for 10 min. at 30° C. in 0.1 M HEPES buffer, pH 7.5, containing 10 mM MgCl2, 2.5 mM phosphoenolpyruvate, 200 μM NADH, 150 μg/mL pyruvate kinase, 50 μg/mL lactate dehydrogenase, and 200 μM erktide peptide. The reaction was initiated by the addition of 65 μM ATP. The rate of decrease of absorbance at […] was monitored. The IC50 was evaluated from the rate data as a function of inhibitor concentration.

T2 sequence (P49841 whole entry, the tested form may be a part): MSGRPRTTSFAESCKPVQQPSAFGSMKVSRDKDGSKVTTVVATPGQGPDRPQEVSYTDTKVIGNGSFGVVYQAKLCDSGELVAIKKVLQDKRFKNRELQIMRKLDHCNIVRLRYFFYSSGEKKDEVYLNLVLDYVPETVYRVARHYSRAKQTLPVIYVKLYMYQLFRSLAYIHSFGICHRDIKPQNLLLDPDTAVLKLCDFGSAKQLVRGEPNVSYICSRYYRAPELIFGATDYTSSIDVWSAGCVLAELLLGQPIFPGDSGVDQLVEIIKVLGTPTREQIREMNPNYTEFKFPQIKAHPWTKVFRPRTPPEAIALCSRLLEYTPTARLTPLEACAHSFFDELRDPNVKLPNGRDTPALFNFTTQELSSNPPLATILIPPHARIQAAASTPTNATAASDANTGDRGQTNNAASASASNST
activated ERK2, sequence (P28482 whole entry): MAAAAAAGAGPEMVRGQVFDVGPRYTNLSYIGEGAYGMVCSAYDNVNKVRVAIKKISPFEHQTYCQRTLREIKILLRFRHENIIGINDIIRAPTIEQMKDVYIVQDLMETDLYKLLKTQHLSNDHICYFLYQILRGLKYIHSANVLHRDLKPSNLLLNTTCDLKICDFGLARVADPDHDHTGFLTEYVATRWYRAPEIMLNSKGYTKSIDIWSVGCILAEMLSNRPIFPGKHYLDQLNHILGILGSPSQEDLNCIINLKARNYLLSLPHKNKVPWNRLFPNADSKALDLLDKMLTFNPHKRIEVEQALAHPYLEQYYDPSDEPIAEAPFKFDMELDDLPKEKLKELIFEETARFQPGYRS
T1 sequence (P12931 whole entry): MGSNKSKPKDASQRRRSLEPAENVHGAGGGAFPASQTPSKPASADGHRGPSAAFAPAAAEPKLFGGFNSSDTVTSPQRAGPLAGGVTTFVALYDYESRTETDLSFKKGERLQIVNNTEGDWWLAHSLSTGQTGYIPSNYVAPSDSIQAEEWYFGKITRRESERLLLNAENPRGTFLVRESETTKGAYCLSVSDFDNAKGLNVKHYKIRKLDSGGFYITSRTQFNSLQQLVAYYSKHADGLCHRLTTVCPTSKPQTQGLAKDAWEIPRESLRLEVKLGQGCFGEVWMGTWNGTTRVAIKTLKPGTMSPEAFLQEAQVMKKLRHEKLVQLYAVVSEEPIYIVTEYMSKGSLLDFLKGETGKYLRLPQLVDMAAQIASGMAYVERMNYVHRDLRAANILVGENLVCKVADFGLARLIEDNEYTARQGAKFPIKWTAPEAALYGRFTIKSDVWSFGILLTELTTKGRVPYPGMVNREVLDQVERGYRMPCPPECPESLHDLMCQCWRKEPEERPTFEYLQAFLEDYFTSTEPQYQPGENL

`c1ccc(-c2nc(Nc3cc(C4CC4)n[nH]3)c3ccccc3n2)cc1` [III-40, (5-Cyclopropyl-2H-pyrazol-3-yl)-(2-phenyl-quinazolin-4-yl)-amine] displayed a melting point of 218 to 219 °C. Moreover, the Ki in series [1] is below 100 nM. In series [2], the Ki is below 100 nM. The same compound came in with a Ki in series [3] below 100 nM. In addition, in series [4], the Ki is 1000 to 12000 nM.

The compound `c1ccc(-c2nc(Nc3ccn[nH]3)c3ccccc3n2)cc1` [III-63, (2-Phenyl-quinazolin-4-yl)-(2H-pyrazol-3-yl)-amine] had a melting point of 247 to 249 °C. In addition, in series [2], the Ki is below 100 nM. In addition, in series [3], the Ki is below 100 nM. Moreover, in series [4], the Ki fell in the range of 1000 to 12000 nM.

The compound `Cc1cc(Nc2nc(N3CCCCC3)nc3ccccc23)[nH]n1` [III-108, (5-Methyl-2H-pyrazol-3-yl)-(2-piperidin-1-yl-quinazolin-4-yl)-amine] had a melting point of 294 °C. In series [2], the Ki is below 100 nM. Moreover, in series [3], the Ki is below 100 nM. Moreover, in series [4], the Ki was 1000 to 12000 nM.

`Cc1cc(Nc2nc(N3CCCCCC3)nc3ccccc23)[nH]n1` [III-109]: the melting point came to 269 °C. Also, in series [2], the Ki is below 100 nM. The compound also registered a Ki in series [3] below 100 nM. Besides, the Ki in series [4] is below 1000 nM.

For the compound `CC1CCN(c2nc(Nc3cc(C4CC4)n[nH]3)c3ccccc3n2)CC1` [III-111, (5-Cyclopropyl-2H-pyrazol-3-yl)-[2-(4-methylpiperidin-1-yl)-quinazolin-4-yl]-amine], the figures for the Ki in series [2], in series [3] and in series [4] were below 100 nM, below 100 nM and below 1000 nM, respectively.

In turn, `OC1(c2ccccc2)CCN(c2nc(Nc3cc(C4CC4)n[nH]3)c3ccccc3n2)CC1` [III-115, (5-Cyclopropyl-2H-pyrazol-3-yl)-[2-(4-hydroxy-4-phenylpiperidin-1-yl)-quinazolin-4-yl]-amine] displayed a melting point of 131 °C. Also, the Ki in series [2] lay within 100 to 1000 nM. This compound also registered a Ki in series [3] below 100 nM. Moreover, in series [4], the Ki is below 1000 nM.

The compound `c1ccc2c(Nc3cc(C4CC4)n[nH]3)nc(N3CCCCCC3)nc2c1` [III-117] registered a melting point of 199 to 200 °C. The same compound came in with a Ki in series [2] below 100 nM. In addition, the Ki in series [3] was below 100 nM. For the same compound, the Ki in series [4] was below 1000 nM.

Compound `c1ccc2c(c1)CCN(c1nc(Nc3cc(C4CC4)n[nH]3)c3ccccc3n1)C2` [III-118, (5-Cyclopropyl-2H-pyrazol-3-yl)-[2-(3,4-dihydro-1H-isoquinolin-2-yl)-quinazolin-4-yl]-amine] came in with a melting point of 182 to 184 °C. In addition, the Ki in series [2] is below 100 nM. In series [3], this compound showed a Ki below 100 nM. Further, in series [4], the Ki was below 1000 nM.

In turn, `OCC1CCN(c2nc(Nc3cc(C4CC4)n[nH]3)c3ccccc3n2)CC1` [III-120, (5-Cyclopropyl-2H-pyrazol-3-yl)-[2-(4-hydroxymethylpiperidin-1-yl)-quinazolin-4-yl]-amine] showed a melting point of 142 °C. In series [2], this compound returned a Ki below 100 nM. This compound also showed an inhibition constant Ki in series [3] below 100 nM. Further, in series [4], the Ki was below 1000 nM.

As usually defined, the melting point is the temperature of the solid-liquid transition. For orientation: Ki means a measure of affinity in units of concentration, obtained from inhibition or displacement.
